Measurements reported in patent US20220347247A1, “USE OF CANNABINOIDS IN THE TREATMENT OF INFLAMMATION AND AGING IN THE SKIN” (priority 2021, published 2022).
Entries after “also recorded” stand apart in the source; their conditions may differ. Read-outs that look alike come from different tables or passages of the source.

Legend:
PGE2 = PGE2 release by PMA-stimulated NHEK (ELISA); assay type: cell-based, human; conditions: for effect on PGE2 release, in words / PGE2 release, % of the control / % of relative inhibition of PGE2 release: PMA-stimulated keratinocytes; for effect on PGE2 release, in words: overall; for PGE2 release, % of the control: highest concentration tested; for % of relative inhibition of PGE2 release: concentration not given
Method: (§1) Example 1: Effects of six compounds on normal human epidermal keratinocytes The effects on normal human epidermal keratinocytes (NHEK) were measured by assessing IL-8 and PGE2 release by PMA-stimulated NHEK using specific ELISA kits.
(§2) Keratinocytes were seeded in 96-well plates and cultured for 24 hours in culture medium. […] After pre-incubation, the medium was removed and replaced by assay medium 1 containing or not (stimulated control) the compounds or the reference compound and containing the inducer (PMA tested at 0.5 μg/ml). The cells were then incubated for 24 hours. In parallel, a non-stimulated control condition was performed.
(§3) All experimental conditions were performed in n=3. At the end of incubation, the culture supernatants were collected for IL-8 and PGE2 quantifications.
(§4) IL-8 and PGE2 released in the culture supernatants were measured using specific ELISA kits according to the supplier's instructions.

IL-8 = assay: cells; assay type: cell-based, human; conditions: for effect on IL-8 release, in words: PMA-stimulated keratinocytes; for % Relative inhibition of IL-8 release: PMA 0.5 μg/ml
Method: as §1, §2, §3, §4

[1] = Homo sapiens, NHEK, 24 h, read-out: % Relative inhibition of IL-8 release
[2] = Homo sapiens, NHEK, 24 h, read-out: % Relative inhibition of PGE2 release
[3] = 1 μM, NHEK, PMA 0.5 μg/ml, 24 h

## C=C(C)[C@@H]1CCC(C)=C[C@H]1c1c(O)cc(CCCCC)cc1O [CBD, cannabidiol]
PGE2; Homo sapiens, 0.1 μM, NHEK, PMA 0.5 μg/ml, 24 h, read-out: % Relative inhibition of PGE2 release
  inhibition at 0.1 µM: 0%
PGE2; Homo sapiens, 0.3 μM, NHEK, PMA 0.5 μg/ml, 24 h, read-out: % Relative inhibition of PGE2 release
  inhibition at 0.3 µM: -59%
PGE2
  effect on PGE2 release, in words: stimulate PGE2 expression
  PGE2 release, % of the control: 185 % of the control
IL-8; 0.3 μM
  effect on IL-8 release, in words: overstimulated IL-8 release
IL-8; [1]
  inhibition at 0.1 µM: 12%
  inhibition at 0.3 µM: -44%
  inhibition at 1 µM: 18%

## C=C(C)[C@@H]1CCC(C)=C[C@H]1c1c(O)cc(CCCCC)c(C(=O)O)c1O [CBDA, cannabidiolic acid]
PGE2; [2]
  inhibition at 0.03 µM: -24%
  inhibition at 0.1 µM: -50%
  inhibition at 0.3 µM: -20%
PGE2
  effect on PGE2 release, in words: did not modulate PGE2 release
IL-8; [1]
  inhibition at 0.03 µM: 11%
  inhibition at 0.1 µM: 17%
  inhibition at 0.3 µM: 0%

## CCCCCc1cc(O)c(C/C=C(\C)CCC=C(C)C)c(O)c1 [CBG, cannabigerol]
PGE2; [2]
  inhibition at 0.3 µM: 86%
  inhibition at 1 µM: > 169%
  inhibition at 3 µM: > 159%
PGE2
  effect on PGE2 release, in words: significant at all tested concentrations; also recorded: significantly inhibited
  % of relative inhibition of PGE2 release: about 160%
IL-8; 3 μM
  effect on IL-8 release, in words: strongly inhibited
IL-8; [1]
  inhibition at 0.3 µM: 7%
  inhibition at 1 µM: 20%
  inhibition at 3 µM: 60%
IL-8; overall
  effect on IL-8 release, in words: significantly inhibited

## CCCCCc1cc(O)c(C/C=C(\C)CCC=C(C)C)c(O)c1C(=O)O [CBGA, cannabigerolic acid]
PGE2; [2]
  inhibition at 0.03 µM: -17%
  inhibition at 0.1 µM: -68%
PGE2
  effect on PGE2 release, in words: stimulate PGE2 expression
  PGE2 release, % of the control: 182 % of the control
IL-8; [1]
  inhibition at 0.03 µM: 0%
  inhibition at 0.1 µM: -7%
  inhibition at 0.3 µM: 9%

## CCCc1cc(O)c(C/C=C(\C)CCC=C(C)C)c(O)c1C(=O)O [CBGVA, cannabigerovarinic acid]
PGE2; 0.1 μM, NHEK, PMA 0.5 μg/ml, 24 h
  % Relative inhibition of PGE2 release: 19%
PGE2; 0.3 μM, NHEK, PMA 0.5 μg/ml, 24 h
  % Relative inhibition of PGE2 release: 65%
PGE2; [3]
  % Relative inhibition of PGE2 release: >162%
PGE2
  effect on PGE2 release, in words: significant effect only when tested at the highest concentration; also recorded: inhibited PGE2 release
  % of relative inhibition of PGE2 release: about 160%
IL-8; 0.1 μM, NHEK, 24 h
  % Relative inhibition of IL-8 release: 2%
IL-8; 0.3 μM, NHEK, 24 h
  % Relative inhibition of IL-8 release: 11%
IL-8; 1 μM, NHEK, 24 h
  % Relative inhibition of IL-8 release: 9%

## COc1ccc2c(c1)c(CC(=O)O)c(C)n2C(=O)c1ccc(Cl)cc1 [Indomethacin, indomethacin, reference compound]
PGE2; [3]
  % Relative inhibition of PGE2 release: >169%
PGE2; [2]
  inhibition at 1 µM: > 169%

## O=C1O[C@H]([C@@H](O)CO)C(O)=C1O [L-Ascorbic acid, reference compound]
PGE2; [2]
  inhibition at 50 µg/mL: > 148%
  inhibition at 100 µg/mL: > 160%
  inhibition at 200 µg/mL: 127%
PGE2
  effect on PGE2 release, in words: overall the same effect at all tested concentrations; also recorded: significantly limited PGE2 release
  % of relative inhibition of PGE2 release: ~145%
IL-8; [1]
  inhibition at 50 µg/mL: -10%
  inhibition at 100 µg/mL: 11%
  inhibition at 200 µg/mL: -15%
